Laboratory results taken from patent publication US20240239752A1, “BICYCLIC HETEROAROMATIC INHIBITORS OF KLK5” (BioCryst Pharmaceuticals, Inc., priority 2021, published 2024).

Molecular target: T1, recombinant human KLK5 (Homo sapiens, UniProt Q9Y337)
T1 construct: purchased Novoprotein or R&D Systems C415 or 1108-SE
T1 sequence (Q9Y337 23-293): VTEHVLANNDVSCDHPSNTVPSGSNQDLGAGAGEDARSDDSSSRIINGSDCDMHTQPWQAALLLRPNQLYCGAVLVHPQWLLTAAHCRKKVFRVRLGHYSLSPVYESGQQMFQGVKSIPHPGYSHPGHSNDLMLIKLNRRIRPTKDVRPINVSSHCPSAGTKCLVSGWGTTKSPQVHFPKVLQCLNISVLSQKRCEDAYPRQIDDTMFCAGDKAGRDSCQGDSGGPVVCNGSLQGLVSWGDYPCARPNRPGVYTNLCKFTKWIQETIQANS
Test: Kallikrein (KLK) 5 enzymatic assay (Boc-VPR-AMC fluorogenic substrate)
Assay type: biochemical
Settings: recombinant human KLK5 0.1 μg/well, Boc-VPR-AMC 100 μM, pH 7.5, room temperature, 1% DMSO; tested a minimum of three times
In short: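 Recombinant human KLK5 (0.1 μg/well) was preincubated with compound at room temperature in 0.1 M NaH2PO4, pH 7.5, 1% DMSO, then started with 100 μM Boc-VPR-AMC. The rate was followed at 380/460 nm, and IC50 came from percent inhibition relative to enzyme alone, with at least three runs.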

| SMILES | IC50 |
| --- | --- |
| CC(C)(C)OC(=O)N1CC(Cn2nc(COc3ccccc3CC(=O)O)c3cc(-c4cccc5c(N)nccc45)ccc32)C1 [Compound 195b, 2-(2-((5-(1-aminoisoquinolin-5-yl)-1-((1-(tert-butoxycarbonyl)azetidin-3-yl)methyl)-1H-indazol-3-yl)methoxy)phenyl)acetic acid] | < 1000 nM |
| Nc1nccc2ccc(-c3ccc4c(c3)C(Oc3ccccc3CC(=O)O)CCC4)cc12 (stereo not shown) [Compound 204d, 2-(2-((7-(1-aminoisoquinolin-7-yl)-1,2,3,4-tetrahydronaphthalen-1-yl)oxy)phenyl)acetic acid] | 1000 to 10000 nM |
| CCCN1CCC2(CC1)C[C@@H](Oc1ccccc1CC(=O)O)c1cc(-c3cccc4c(N)nccc34)ccc12 [Compound 417b, (R)-2-(2-((5-(1-aminoisoquinolin-5-yl)-1′-propyl-2,3-dihydrospiro[indene-1,4′-piperidin]-3-yl)oxy)phenyl)acetic acid] | < 1000 nM |
| CC(C)n1nc(COc2ccccc2CC(=O)O)c2cc(-c3ccc4oc(N)nc4c3)ccc21 [Compound 27c, 2-(2-((5-(2-aminobenzo[d]oxazol-5-yl)-1-isopropyl-1H-indazol-3-yl)methoxy)phenyl)acetic acid] | > 10000 nM |
| Nc1nccc2c(-c3ccc4c(c3)c(COc3c(CC(=O)O)cccc3C(=O)O)nn4C3CCC3)cccc12 [Compound 177a, 2-((5-(1-aminoisoquinolin-5-yl)-1-cyclobutyl-1H-indazol-3-yl)methoxy)-3-(carboxymethyl)benzoic acid] | 1000 to 10000 nM |
| CCC(CC)n1nc(COc2ccccc2CC(=O)O)c2cc(-c3ccc4ccnc(N)c4c3)ccc21 [Compound 110e, 2-(2-((5-(1-aminoisoquinolin-7-yl)-1-(pentan-3-yl)-1H-indazol-3-yl)methoxy)phenyl)acetic acid] | < 1000 nM |
| CC1(C)Cc2ccc(-c3ccc4ccnc(N)c4c3)cc2C1Oc1cc(F)ccc1CC(=O)O (stereo not shown) [Compound 439b, 2-(2-((6-(1-aminoisoquinolin-7-yl)-2,2-dimethyl-2,3-dihydro-1H-inden-1-yl)oxy)-4-fluorophenyl)acetic acid] | 1000 to 10000 nM |
| Cc1cc2c(-c3ccc4c(c3)c(COc3ccccc3CC(=O)O)nn4C(C)C)cccc2c(N)n1 [Compound 220d, 2-(2-((5-(1-amino-3-methylisoquinolin-5-yl)-1-isopropyl-1H-indazol-3-yl)methoxy)phenyl)acetic acid] | 1000 to 10000 nM |
| CC(C)n1nc(COc2ccccc2CC(=O)O)c2cc(-c3ccc4cc(N)ccc4c3)ccc21 [Compound 36c, 2-(2-((5-(6-aminonaphthalen-2-yl)-1-isopropyl-1H-indazol-3-yl)methoxy)phenyl)acetic acid] | > 10000 nM |
| Nc1nccc2c(-c3ccc4c(c3)C(COc3ccccc3CC(=O)O)CC43CCCC3)cccc12 (stereo not shown) [Compound 403a, 2-(2-((5′-(1-aminoisoquinolin-5-yl)-2′,3′-dihydrospiro[cyclopentane-1,1′-inden]-3′-yl)methoxy)phenyl)acetic acid] | < 1000 nM |
| Cc1ccc(CC(=O)O)c(OCc2c3cc(-c4ccc5ccnc(N)c5c4)ccc3nn2C2CCCCC2)c1 [Compound 15d, 2-(2-((5-(1-aminoisoquinolin-7-yl)-2-cyclohexyl-2H-indazol-3-yl)methoxy)-4-methylphenyl)acetic acid] | > 10000 nM |
| CC(C)OC(=O)N1CCC2(CC1)CC(Oc1ccccc1CC(=O)O)c1cc(-c3ccc4ccnc(N)c4c3)ccc12 (stereo not shown) [Compound 374c, 2-(2-((5-(1-aminoisoquinolin-7-yl)-1′-(isopropoxycarbonyl)-2,3-dihydrospiro[indene-1,4′-piperidin]-3-yl)oxy)phenyl)acetic acid] | < 1000 nM |
| CC(C)n1nc(COc2ccccc2CC(=O)O)c2cc(-c3ccc4c(c3)[C@H](N)CO4)ccc21 [Compound 79c, (S)-2-(2-((5-(3-amino-2,3-dihydrobenzofuran-5-yl)-1-isopropyl-1H-indazol-3-yl)methoxy)phenyl)acetic acid] | > 10000 nM |
| Cc1ccc(CC(=O)O)c(OCc2nn(C3CCC3)c3ccc(-c4cccc5c(N)nccc45)cc23)c1 [Compound 163c, 2-(2-((5-(1-aminoisoquinolin-5-yl)-1-cyclobutyl-1H-indazol-3-yl)methoxy)-4-methylphenyl)acetic acid] | < 1000 nM |
| COC(=O)N1CCC2(CC1)C[C@@H](Oc1ccccc1CC(=O)O)c1cc(-c3cccc4c(N)nccc34)ccc12 [Compound 398d, (R)-2-(2-((5-(1-aminoisoquinolin-5-yl)-1′-(methoxycarbonyl)-2,3-dihydrospiro[indene-1,4′-piperidin]-3-yl)oxy)phenyl)acetic acid] | < 1000 nM |

More lines, now with the values ahead:

| IC50 | SMILES |
| --- | --- |
| < 1000 nM | Cc1ccc(CC(=O)O)c(OCc2nn(C)c3ccc(-c4cccc(C(=N)N)c4)cc23)c1 [Compound 104d, 2-(2-((5-(3-carbamimidoylphenyl)-1-methyl-1H-indazol-3-yl)methoxy)-4-methylphenyl)acetic acid] |
| < 1000 nM | Nc1nccc2ccc(-c3cnc4c(c3)c(COc3ccccc3CC(=O)O)nn4C3CCC3)cc12 [Compound 197j, 2-(2-((5-(1-aminoisoquinolin-7-yl)-1-cyclobutyl-1H-pyrazolo[3,4-b]pyridin-3-yl)methoxy)phenyl)acetic acid] |
| < 1000 nM | COC(=O)N1CCC2(CC1)CC(Oc1cc(F)ccc1CC(=O)O)c1cc(-c3ccc4ccnc(N)c4c3)ccc12 (stereo not shown) [Compound 408f, 2-(2-((5-(1-aminoisoquinolin-7-yl)-1′-(methoxycarbonyl)-2,3-dihydrospiro[indene-1,4′-piperidin]-3-yl)oxy)-4-fluorophenyl)acetic acid] |
| < 1000 nM | N=C(N)c1cccc(-c2ccc3c(c2)c(COc2ccccc2CC(=O)O)nn3C2CC2)c1 [Compound 59d, 2-(2-((5-(3-carbamimidoylphenyl)-1-cyclopropyl-1H-indazol-3-yl)methoxy)phenyl)acetic acid] |
| < 1000 nM | COC(=O)N1CCC2(CC1)CC(Oc1cc(C#N)ccc1CC(=O)O)c1cc(-c3ccc4ccnc(N)c4c3)ccc12 (stereo not shown) [Compound 410d, 2-(2-((5-(1-aminoisoquinolin-7-yl)-1′-(methoxycarbonyl)-2,3-dihydrospiro[indene-1,4′-piperidin]-3-yl)oxy)-4-cyanophenyl)acetic acid] |
| < 1000 nM | Nc1nccc2c(-c3cc(-c4ccoc4)c4c(c3)C(Oc3ccccc3CC(=O)O)CC4)cccc12 (stereo not shown) [Compound 261b, 2-(2-((6-(1-aminoisoquinolin-5-yl)-4-(furan-3-yl)-2,3-dihydro-1H-inden-1-yl)oxy)phenyl)acetic acid] |
| < 1000 nM | N=C(N)c1cccc(-c2ccc3c(c2)c(COc2ccccc2CC(=O)O)nn3C2CCOC2)c1 (stereo not shown) [Compound 96g, 2-(2-((5-(3-carbamimidoylphenyl)-1-(tetrahydrofuran-3-yl)-1H-indazol-3-yl)methoxy)phenyl)acetic acid] |
| < 1000 nM | Nc1nccc2c(-c3ccc4c(c3)c(COc3cccc(OC(F)(F)F)c3CC(=O)O)nn4C3CCOC3)cccc12 (stereo not shown) [Compound 289b, 2-(2-((5-(1-aminoisoquinolin-5-yl)-1-(tetrahydrofuran-3-yl)-1H-indazol-3-yl)methoxy)-6-(trifluoromethoxy)phenyl)acetic acid] |
| < 1000 nM | Nc1nccc2c(-c3ccc4c(c3)c(COc3ccccc3CC(=O)O)nn4CCF)cccc12 [Compound 183b, 2-(2-((5-(1-aminoisoquinolin-5-yl)-1-(2-fluoroethyl)-1H-indazol-3-yl)methoxy)phenyl)acetic acid] |
| < 1000 nM | Nc1nccc2c(-c3ccc4c(c3)c(COc3ccccc3CC(=O)O)nn4C3CCC(F)(F)C3)cccc12 (stereo not shown) [Compound 265h, 2-(2-((5-(1-aminoisoquinolin-5-yl)-1-(3,3-difluorocyclopentyl)-1H-indazol-3-yl)methoxy)phenyl)acetic acid] |
| < 1000 nM | COCCn1nc(COc2ccccc2CC(=O)O)c2cc(-c3ccc4ccnc(N)c4c3)ccc21 [Compound 111e, 2-(2-((5-(1-aminoisoquinolin-7-yl)-1-(2-methoxyethyl)-1H-indazol-3-yl)methoxy)phenyl)acetic acid] |
| < 1000 nM | Nc1nccc2ccc(-c3ccc4c(c3)c(COc3ccccc3CC(=O)O)nn4C3CCC3)cc12 [Compound 37c, 2-(2-((5-(1-aminoisoquinolin-7-yl)-1-cyclobutyl-1H-indazol-3-yl)methoxy)phenyl)acetic acid] |
| < 1000 nM | Nc1nccc2ccc(-c3ccc4c(c3)c(COc3ccccc3CC(=O)O)nn4C3CCN(CC(=O)O)C3)cc12 (stereo not shown) [Compound 297d, 2-(2-((5-(1-aminoisoquinolin-7-yl)-1-(1-(carboxymethyl)pyrrolidin-3-yl)-1H-indazol-3-yl)methoxy)phenyl)acetic acid] |
| < 1000 nM | Nc1nccc2c(-c3ccc4c(c3)C(COc3ccccc3CC(=O)O)=CC43CCCC3)cccc12 [Compound 400f, 2-(2-((5′-(1-aminoisoquinolin-5-yl)spiro[cyclopentane-1,1′-inden]-3′-yl)methoxy)phenyl)acetic acid] |
| < 1000 nM | Nc1nccc2c(-c3cc(NCC4CC4)c4c(c3)c(COc3ccccc3CC(=O)O)nn4C3CCCCO3)cccc12 (stereo not shown) [Compound 107d, 2-(2-((5-(1-aminoisoquinolin-5-yl)-7-((cyclopropylmethyl)amino)-1-(tetrahydro-2H-pyran-2-yl)-1H-indazol-3-yl)methoxy)phenyl)acetic acid] |
| < 1000 nM | Nc1nccc2ccc(-c3ccc4c(c3)C(Oc3cc(F)ccc3CC(=O)O)CC43CCCC3)cc12 (stereo not shown) [Compound 443b, 2-(2-((5′-(1-aminoisoquinolin-7-yl)-2′,3′-dihydrospiro[cyclopentane-1,1′-inden]-3′-yl)oxy)-4-fluorophenyl)acetic acid] |
